Format in all cases: in vivo
The subject of data set [1] is Cercospora beticola (leaf spot). Kind of data set: Test 1 greenhouse foliar spray screen, leaf spot on sugar beet. As to conditions: Cercospora beticola; Test 1, foliar spray on sugar beet; disease control rating at 400 ppm / 100 ppm.
In data set [2] the test system is Erysiphe graminis tritici (powdery mildew). Kind of data set: Test 1 greenhouse foliar spray screen, powdery mildew on wheat. The conditions noted are these: Blumeria graminis, foliar, Test 1, foliar spray on wheat; disease control rating at 400 ppm / 100 ppm; read-out: POWD MDEW.
Data set [3] relates to southern armyworm (Spodopetra eridania Cramer). The data set can be described thus: Mite/insect screen, SAW. The conditions noted are these: percent mortality, foliar spray on squash; for mortality at 200 ppm / mortality at 400 ppm: Spodoptera eridania, foliar, read-out: SAW RESULTS %; for mortality at 200 ppm: rate 200 ppm. The gist of the method:
(§1)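 Formulation: acetone/alcohol 50:50 + sulfonate/nonionic emulsifiers, water-diluted to indicated concs. Spray both leaf surfaces to runoff, 10 psi; dry 1 h. Armyworm: 2 excised uninfested leaves in Petri dish. Score % mortality after standard exposure.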

In data set [4] the test system is Septoria tritici (leaf blotch). The data set can be described thus: Test 1 greenhouse foliar spray screen, leaf blotch on wheat. As to conditions: Zymoseptoria tritici; Test 1, foliar spray on wheat; disease control rating at 400 ppm / 100 ppm; read-out: LEAF BLOT.
The test system of data set [5] is Twospotted spider mites (Tetranychus urticae Koch). The data set can be described thus: Mite/insect screen, SM. The conditions noted are these: for mortality at 200 ppm / mortality at 400 ppm: Tetranychus urticae, foliar, read-out: SM RESULTS %; for mortality at 200 ppm: rate 200 ppm; for activity as miticides: summary statement in the description. The essentials:
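Compounds dissolved in 50:50 acetone/alcohol containing sulfonate/nonionic emulsifier blends, then diluted with water to the indicated concentrations. Leaves sprayed on both surfaces to runoff at 10 psi and dried one hour. Percent mortality scored after standard exposure periods.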

The test system of data set [6] is Pyricularia oryzae (rice blast). Kind of data set: whole plant or invertebrate. The conditions noted are these: for pest or weed control at 400 ppm: Pyricularia oryzae, foliar, read-out: RICE BLAST, Test 1, foliar spray on rice, disease control rating at 400 ppm / 100 ppm.
In data set [7] the test system is Pseudoperonospora cubensis (downy mildew). Kind of data set: Test 1 greenhouse foliar spray screen, downy mildew on squash. As to conditions: Pseudoperonospora cubensis, foliar, Test 1, foliar spray on squash; disease control rating at 400 ppm / 100 ppm; read-out: DOWN MDEW.
The test system of data set [8] is Puccinia recondita tritici (leaf rust). Kind of data set: Test 1 greenhouse foliar spray screen, leaf rust on wheat. As to conditions: Puccinia recondita, foliar, Test 1, foliar spray on wheat; disease control rating at 400 ppm / 100 ppm.
Data set [9] has as its system corn rootworm. The data set can be described thus: Mite/insect screen, CRW. As to conditions: percent mortality, read-out: CRW RESULTS %; for mortality at 12 ppm: CRW rate 12.00 ppm; for mortality at 24 ppm: CRW rate 24.00 ppm. The gist of the method:
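Percent mortality is evaluated once the standard exposure period ends. Test material is applied as a water dilution of an acetone/alcohol (50:50) stock carrying two sulfonate/nonionic emulsifiers (23 and 13 g per liter).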

The test system of data set [10] is Venturia inaequalis (apple scab). Kind of data set: Test 1 greenhouse foliar spray screen, apple scab on apple seedling. The conditions noted are these: Venturia inaequalis; Test 1, foliar spray on apple seedling; disease control rating at 400 ppm / 100 ppm; read-out: APPL SCAB.
Data set [11] relates to melon aphids (Aphis gossypii Glover). The data set can be described thus: Mite/insect screen, MA. The conditions noted are these: Aphis gossypii, foliar, percent mortality, foliar spray on squash, read-out: MA RESULTS %; for mortality at 200 ppm: rate 200 ppm; for mortality at 400 ppm: rate 400 ppm. The essentials:
as §1

For data set [12], the system named is Botrytis cinerea (gray mold). Kind of data set: Test 1 greenhouse foliar spray screen, gray mold on grape berries. As to conditions: Botrytis cinerea, foliar; Test 1, spray on grape berries; disease control rating at 400 ppm / 100 ppm.
Setting [13] is: percent mortality, foliar spray on squash.
Where [14] appears, read: percent mortality, rate 400 ppm, foliar spray on squash.

With `Fc1ccc2c(OCCc3ccc(-c4ccccc4)cc3)ccnc2c1` [Example 233, 4-[2-(1,1'-biphenyl)-4-ylethoxy]-7-fluoroquinoline], the pest or weed control at 400 ppm lay in the range of 0 to 19% in [1]; 20 to 89% in data set [2]; 20 to 89% in data set [4]; 90 to 100% in data set [6]; 20 to 89% in data set [7]; 90 to 100% in data set [8]. The pest or weed control at 400 ppm in data set [10] and in [12] was 0 to 19% each time. Moreover, the mortality at 200 ppm was determined as 0% in [3], 100% in data set [5] (setting [13]) and 50% in data set [11]. The mortality at 400 ppm turned out to be 0% in data set [3] (rate 400 ppm), 80% in data set [5] (setting [14]) and 80% in data set [11]. Further, in data set [5], the activity as miticides entry is “particularly excellent activity”. Further, in data set [9], the mortality at 12 ppm amounted to 0%. The mortality at 24 ppm in data set [9] is 0%.
On to `Fc1ccc2c(OCCc3ccc(Cl)cc3)ccnc2c1` [Example 234, 4-[2-(4-chlorophenyl)ethoxy]-7-fluoroquinoline], for which the pest or weed control at 400 ppm is 20 to 89% in [1]; 20 to 89% in data set [2]; 20 to 89% in data set [4]; 20 to 89% in [6]; 20 to 89% in data set [7]; 90 to 100% in data set [8]. Moreover, the pest or weed control at 400 ppm in [10] and in [12] was 0 to 19% throughout. Also, the mortality at 200 ppm in [3] was 60%; in data set [5] (setting [13]) it was 50%; in data set [11], 50%. Also, the mortality at 400 ppm in data set [3] (rate 400 ppm) was found to be 0%; in data set [5] (setting [14]), 30%; in data set [11], 100%. In data set [9], the mortality at 12 ppm was found to be 0%. The mortality at 24 ppm in [9] came out at 0%.
As to `Cc1ccc(CCOc2ccnc3cc(F)ccc23)cc1` [Example 235, 7-fluoro-4-[2-(4-methylphenyl)ethoxy]quinoline], the pest or weed control at 400 ppm in data set [1] was in the range of 0 to 19%; in data set [2], 20 to 89%; in data set [4], 20 to 89%; in [6], 90 to 100%; in data set [7], 20 to 89%; in data set [8] it was 90 to 100%. The pest or weed control at 400 ppm in [10] and in [12] was 0 to 19% each time. In addition, the mortality at 200 ppm in data set [3] was 80%; in data set [5] (setting [13]), 0%; in data set [11], 0%. Also, the figures for the mortality at 400 ppm in [3] (rate 400 ppm), in [5] (setting [14]) and in data set [11] were 0%, 0% and 50%, respectively. Also, the mortality at 12 ppm in data set [9] was 0%. In addition, the mortality at 24 ppm in data set [9] was 0%.
As to `Fc1ccc(CCOc2ccnc3cc(Cl)ccc23)cc1` [Example 236, 7-chloro-4-[2-(4-fluorophenyl)ethoxy]quinoline], the pest or weed control at 400 ppm in data set [1] fell in the range of 0 to 19%; in [2], 90 to 100%; in data set [4] it was 0 to 19%; in data set [6], 0 to 19%; in [7], 0 to 19%; in data set [8], 20 to 89%. Moreover, the pest or weed control at 400 ppm in data set [10] and in [12] was 0 to 19% each time. Besides, the mortality at 200 ppm in [3], in [5] (setting [13]) and in data set [11] was 0% in each case. For the same molecule, the mortality at 400 ppm in [3] (rate 400 ppm) and in [5] (setting [14]) was 0% in each case. For the same molecule, the “SAW RESULTS %” value in data set [3] (rate 400 ppm) was 0%. Besides, the “SM RESULTS %” value in [5] (setting [14]) stood at 0%. Besides, the mortality at 12 ppm in data set [9] is 0%.
Turning to `Fc1cccc2c(OCCc3cccc4ccccc34)ccnc12` [Example 244, 8-fluoro-4-[2-(1-naphthyl)ethoxy]quinoline], the pest or weed control at 400 ppm in data set [1] lay within 0 to 19%; in data set [2], 20 to 89%; in data set [4], 20 to 89%; in [6], 90 to 100%; in [7] it was 20 to 89%; in [8] it was 20 to 89%. Further, the pest or weed control at 400 ppm in [10] and in [12] was 0 to 19% each time. In addition, the mortality at 200 ppm in [3] was 0%; in data set [5] (setting [13]) it was 0%; in data set [11], 40%. Further, the mortality at 12 ppm in data set [9] came to 0%.
Regarding `c1csc(CCOc2ccnc3ccccc23)c1` [Example 245, 4-[2-(2-thienyl)ethoxy]quinoline], the pest or weed control at 400 ppm in [1] lay in the range of 0 to 19%; in [2], 20 to 89%; in data set [4] it was 0 to 19%; in data set [6], 90 to 100%; in data set [7], 90 to 100%; in data set [8], 90 to 100%. The pest or weed control at 400 ppm in data set [10] and in data set [12] was 0 to 19% each time. Besides, the mortality at 200 ppm in [3], in data set [5] (setting [13]) and in [11] was 0% in each case. Also, the mortality at 12 ppm in data set [9] is 0%.
As for `Fc1cccc2c(OCCc3cccs3)ccnc12` [Example 246, 8-fluoro-4-[2-(2-thienyl)ethoxy]quinoline], the pest or weed control at 400 ppm in data set [1] was in the range of 20 to 89%; in data set [2] it was 90 to 100%; in data set [4] it was 90 to 100%; in [6], 90 to 100%; in data set [7], 90 to 100%; in data set [8], 90 to 100%. Moreover, the pest or weed control at 400 ppm in data set [10] lay in the range of 90 to 100%; in [12], 0 to 19%. The mortality at 200 ppm in [3], in data set [5] (setting [13]) and in [11] was 0% throughout. Further, in data set [9], the mortality at 12 ppm was 0%.
Consider `Fc1cccc2c(OCCc3ccc4ccccc4c3)ccnc12` [Example 247, 8-fluoro-4-[2-(2-naphthyl)ethoxy]quinoline], for which the pest or weed control at 400 ppm is 0 to 19% in [1]; 90 to 100% in data set [2]; 90 to 100% in data set [4]; 90 to 100% in [6]; 20 to 89% in data set [7]; 90 to 100% in [8]. Moreover, the pest or weed control at 400 ppm in [10] and in [12] was 0 to 19% each time. Besides, the mortality at 200 ppm in data set [3] is 20%; in [5] (setting [13]), 90%; in [11], 0%. In addition, the mortality at 400 ppm in data set [3] (rate 400 ppm) came out at 50%; in data set [5] (setting [14]) it was 0%; in [11], 0%. The activity as miticides entry in [5] was “particularly excellent activity”. Further, in data set [6] (summary statement in the description), the “activity against rice blast” value is “particularly excellent activity”. In addition, in [9], the mortality at 12 ppm came to 0%. Moreover, the mortality at 24 ppm in [9] was determined as 0%.
As to `Cc1ccc(CCOc2ccnc3c(OCCc4ccc(C)cc4)cccc23)cc1` [Example 251, 4,8-bis[2-(4-methylphenyl)ethoxy]quinoline], the pest or weed control at 400 ppm in [1] lay in the range of 0 to 19%; in data set [2], 0 to 19%; in data set [4], 0 to 19%; in data set [6] it was 20 to 89%; in [7] it was 20 to 89%; in data set [8], 0 to 19%. Also, the pest or weed control at 400 ppm in data set [10] and in [12] was 0 to 19% throughout. The mortality at 200 ppm in [3], in data set [5] (setting [13]) and in data set [11] was 0% each time. Moreover, the mortality at 12 ppm in [9] was determined as 0%.
